Strand notation (5' to 3'): a small letter for the sugar, then the base; units joined by * are phosphorothioate-linked, units joined directly phosphodiester-linked; [ ] holds rarer units or linkages, { } end groups; capitals alone tell only the bases. k = constrained ethyl (cEt); [5mC] = 5-methylcytosine; d = 2'-deoxy (DNA)
Assays:
[1] = Tolerability in Sprague-Dawley rats, plasma chemistry markers (Example 20); format: in vivo; settings: male Sprague-Dawley rats, 50 mg/kg s.c. weekly for 6 weeks (7 doses), 48 hours after last dose
Method: Sprague-Dawley rats are a multipurpose model used for safety and efficacy evaluations. The rats were treated with Ionis modified oligonucleotides from the studies described in the Examples above and evaluated for changes in the levels of various plasma chemistry markers.

[2] = Tolerability in CD-1 mice, body and organ weights (Example 18); format: in vivo; settings: male CD-1 mice, 50 mg/kg s.c. twice a week (total of 9 treatments), end of study (day 34)
Method: (§1) Groups of four male CD-1 mice at 5-6 weeks of age (obtained from Charles River) were injected subcutaneously twice a week for four weeks (for a total of 9 treatments) with 50 mg/kg of modified oligonucleotides. One group of male CD-1 mice was injected with PBS. Mice were euthanized on day 34 post start of treatment (24 hours following the final administration).
(§2) Body weights of CD-1 mice were measured at the end of the study, and the average body weight for each group is presented in the table below. Modified oligonucleotides that caused any changes in organ weights outside the expected range for modified oligonucleotides were excluded from further studies.

Yap1 mRNA [3] = test: Dose-dependent inhibition of human Yap1 in A-431 cells (Example 8, 10,000 cells per well, RTS4814); format: cell-based; settings: free uptake, approximately 48 hours, RTS4814; for Yap1 mRNA, % UTC: A-431 cells, 10,000 cells per well
Method in brief: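 Yap1 mRNA, normalized to RIBOGREEN total RNA and expressed as % untreated control, was read with RTS4814 about 48 h after free-uptake oligonucleotide treatment of A-431 cells at 10,000 cells/well. IC50 derived by linear regression of log/linear data.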

[4] = Tolerability in CD-1 mice, plasma chemistry markers (Example 18); format: in vivo; settings: male CD-1 mice, 50 mg/kg s.c. twice a week (total of 9 treatments), day 34
Method: (§3) CD-1 mice were treated with modified oligonucleotides selected from studies described above and evaluated for changes in the levels of various plasma chemistry markers.
as §1

[5] = Tolerability in Sprague-Dawley rats, kidney function, urine total protein to creatinine ratio (Example 20); settings: male Sprague-Dawley rats, 50 mg/kg subcutaneously weekly for 6 weeks (total 7 doses)
Method: Male Sprague-Dawley rats were maintained on a 12-hour light/dark cycle and fed ad libitum with Purina normal rat chow. Groups of 4 Sprague-Dawley rats each were weekly injected subcutaneously with 50 mg/kg of Ionis oligonucleotide for 6 weeks (total 7 doses). Forty-eight hours after the last dose, the rats were euthanized; and organs, urine and plasma were harvested for further analysis.
To evaluate the effect of Ionis oligonucleotides on kidney function, urinary levels of total protein and creatinine were measured using an automated clinical chemistry analyzer (Hitachi Olympus AU400c, Melville, N.Y.).

[6] = Tolerability in Sprague-Dawley rats, body and organ weights (Example 20); format: in vivo; settings: male Sprague-Dawley rats, 50 mg/kg s.c. weekly for 6 weeks (7 doses); for Kidney weight / Liver weight / Spleen weight: end of study; for body weight: terminal, prior to necropsy
Method: Terminal body weight was measured prior to necropsy. Ionis oligonucleotides that caused any changes in organ weights outside the expected range for modified oligonucleotides were excluded from further studies.

Yap1 mRNA [7] = test: Inhibition of human Yap1 mRNA in SNU449 hepatocellular carcinoma xenograft tumors (Example 26); format: in vivo; settings: SNU449 xenografts in NSG mice, 50 mg/kg twice weekly for five days, relative to PBS treated animals
Method: A SNU449 hepatocellular carcinoma xenograft tumor model was used to evaluate activity of modified oligonucleotides targeted to human Yap1. Ten million SNU449 cells in 30% matrigel were implanted subcutaneously into the flanks of female NOD Cg-Prkdcscid ll2rgtm1Wjl/SzJ (NSG) mice (from Jackson Laboratory) at 4-6 weeks of age. When tumors reached an average volume of 100 mm^3, approximately two weeks post-implantation, groups of four mice each were administered at 50 mg/kg twice weekly with modified oligonucleotides for five days. Tumors were collected and tested for Yap1 mRNA knockdown by RT-qPCR. Yap1 mRNA levels were measured as previously described using the Human Yap1 primer-probe set RTS4814. Yap1 mRNA levels were normalized to actin-beta content, as measured by primer probe set RTS5002. Results are presented in the tables below as percent control of the amount of Yap1 mRNA relative to PBS treated animals (% control).

[8] = Tolerability in CD-1 mice, plasma chemistry markers (Example 16); format: in vivo; settings: male CD-1 mice, 50 mg/kg s.c. twice a week for four weeks (8 treatments), day 27
Method: as §3
as §1, with “4-5” for “5-6”, “8” for “9”, “27” for “34”, “hrs” for “hours”

[9] = Tolerability in CD-1 mice, body and organ weights (Example 16); format: in vivo; settings: male CD-1 mice, 50 mg/kg s.c. twice a week for four weeks (8 treatments), end of study (day 27)
Method: as §1, with “4-5” for “5-6”, “8” for “9”, “27” for “34”, “hrs” for “hours”
as §2

Yap1 mRNA [10] = test: Dose-dependent inhibition of human Yap1 in SNU-449 cells (Example 9, RTS36584); format: cell-based; settings: free uptake; for % UTC (Yap1 mRNA): approximately 48 hours
Method in brief: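 Read-out was Yap1 mRNA (primer-probe RTS36584) normalised to total RNA by RIBOGREEN, given as % of untreated cells, with IC50 fitted by linear regression of log/linear data. Oligonucleotides were dosed by free uptake to SNU-449 cells, 10,000/well, for ~48 h.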

[11] = Tolerability in CD-1 mice, body and organ weights (Example 17); format: in vivo; settings: male CD-1 mice, 50 mg/kg s.c. twice a week for four weeks (8 treatments), end of study (day 27)
Method: as §1, with “4-5” for “5-6”, “8” for “9”, “27” for “34”, “hrs” for “hours”
as §2

[12] = Tolerability in CD-1 mice, plasma chemistry markers (Example 17); format: in vivo; settings: male CD-1 mice, 50 mg/kg s.c. twice a week for four weeks (8 treatments), day 27
Method: as §3
as §1, with “4-5” for “5-6”, “8” for “9”, “27” for “34”, “hrs” for “hours”

1074755 (k[5mC]*kA*k[5mC]*dT*dT*dT*dT*dA*d[5mC]*dA*dT*dT*dA*kG*kG*kA; antisense) [compound 1074755]
ALB [1]: 2.99 g/dL | ALT [1]: 57 U/L | AST [1]: 97 U/L | BUN [1]: 29 mg/dL | TBIL [1]: 0.12 mg/dL | Kidney weight [2]: 0.61 g | Liver weight [2]: 2.27 g | Spleen weight [2]: 0.19 g | body weight [2]: 39 g | Yap1 mRNA, % UTC (Yap1 mRNA [3]; 31.3 nM): 28 % UTC | Yap1 mRNA, % UTC (Yap1 mRNA [3]; 125.0 nM): 9 % UTC | Yap1 mRNA, % UTC (Yap1 mRNA [3]; 500.0 nM): 5 % UTC | Yap1 mRNA, % UTC (Yap1 mRNA [3]; 2000.00 nM): 3 % UTC | IC50 (Yap1 mRNA [3]; A-431 cells, linear regression on log/linear plot): < 20 nM | ALT [4]: 88 U/L | AST [4]: 104 U/L | BUN [4]: 22 mg/dL | TBIL [4]: 0.21 mg/dL | URINE P/C ratio (total protein to creatinine ratio) [5]: 5 | Kidney weight [6]: 3.3 g | Liver weight [6]: 16 g | Spleen weight [6]: 2.1 g | body weight [6]: 357 g | Yap1 mRNA in tumors, % control (Yap1 mRNA [7]): 70 % control

1076187 (kG*kA*kT*dT*dT*dA*dG*dG*dA*dT*dG*d[5mC]*dA*kT*kG*kG; antisense) [compound 1076187]
ALT [8]: 57 U/L | AST [8]: 90 U/L | Albumin [8]: 2.3 g/dL | BUN [8]: 20 mg/dL | TBIL [8]: 0.18 mg/dL | ALB [1]: 2.91 g/dL | ALT [1]: 54 U/L | AST [1]: 113 U/L | BUN [1]: 21 mg/dL | TBIL [1]: 0.10 mg/dL | Kidney weight [9]: 0.56 g | Liver weight [9]: 1.95 g | Spleen weight [9]: 0.14 g | body weight [9]: 34 g | URINE P/C ratio (total protein to creatinine ratio) [5]: 5 | % UTC (Yap1 mRNA) (Yap1 mRNA [10]; 31.3 nM): 68 % UTC | % UTC (Yap1 mRNA) (Yap1 mRNA [10]; 125.0 nM): 46 % UTC | % UTC (Yap1 mRNA) (Yap1 mRNA [10]; 500.0 nM): 24 % UTC | % UTC (Yap1 mRNA) (Yap1 mRNA [10]; 2000.00 nM): 12 % UTC | IC50 (Yap1 mRNA [10]; linear regression on a log/linear plot): 100 nM | Kidney weight [6]: 3.0 g | Liver weight [6]: 17 g | Spleen weight [6]: 1.7 g | body weight [6]: 344 g

1097224 (k[5mC]*kT*k[5mC]*dT*dT*dA*dT*dA*dT*dG*dG*dT*dT*kT*kT*kG; antisense) [compound 1097224]
Kidney weight [11]: 0.54 g | Liver weight [11]: 1.93 g | Spleen weight [11]: 0.16 g | body weight [11]: 37 g | ALT [12]: 39 U/L | AST [12]: 78 U/L | BUN [12]: 21 mg/dL | TBIL [12]: 0.09 mg/dL | ALB [1]: 1.61 g/dL | ALT [1]: 31 U/L | AST [1]: 51 U/L | BUN [1]: 86 mg/dL | TBIL [1]: 0.07 mg/dL | URINE P/C ratio (total protein to creatinine ratio) [5]: 87 | Kidney weight [6]: 4.5 g | Liver weight [6]: 13 g | Spleen weight [6]: 1.4 g | body weight [6]: 316 g
